Reference: ChEMBL document CHEMBL3822402, “Discovery of potent macrocyclic HCV NS5A inhibitors” (Bioorg Med Chem Lett, 2016)

Columns and labels:
Type in all cases: functional, organism-based, Hepacivirus hominis
Hepatitis C virus [1] = assay: Antiviral activity against HCV genotype 1a by real time PCR analysis; settings: subtype 1a
Hepatitis C virus [2] = assay: Antiviral activity against HCV genotype 1b by real time PCR analysis
Hepatitis C virus [3] = assay: Antiviral activity against HCV genotype 2a by real time PCR analysis
Hepatitis C virus [4] = assay: Antiviral activity against HCV genotype 1a harboring NS5A Y93H mutant by real time PCR analysis; settings: subtype 1a
Hepatitis C virus [5] = assay: Antiviral activity against HCV genotype 3a by real time PCR analysis
Hepatitis C virus [6] = assay: Antiviral activity against HCV genotype 1a in presence of 10% FBS by real time PCR analysis; settings: subtype 1a
Hepatitis C virus [7] = assay: Antiviral activity against HCV genotype 1b in presence of 10% FBS by real time PCR analysis

Row | Compound | EC50 (Hepatitis C virus [1]) [nM] | EC50 (Hepatitis C virus [2]) [nM] | EC50 (Hepatitis C virus [3]) [nM] | EC50 (Hepatitis C virus [4]) [nM] | EC50 (Hepatitis C virus [5]) [nM] | EC50 (Hepatitis C virus [6]) [nM] | EC50 (Hepatitis C virus [7]) [nM]
1 | COC(=O)N[C@H](C(=O)N1CCC[C@H]1c1ncc(-c2ccc(-c3ccc4c(c3)c(Cl)cc3nc([C@@H]5CCCN5C(=O)[C@@H](NC(=O)OC)C(C)C)[nH]c34)cc2)[nH]1)C(C)C | 0.01 | 0.003 | 0.004 | 121 | – | – | –
2 | COC(=O)N[C@H](C(=O)N1CCC[C@H]1c1ncc(-c2ccc(-c3ccc4c(ccc5nc([C@@H]6[C@H]7CC[C@H](C7)N6C(=O)[C@@H](NC(=O)OC)C(C)C)[nH]c54)c3)cc2)[nH]1)C(C)C | 0.02 | 0.005 | 0.02 | 93 | – | – | –
3 | COC(=O)N[C@H](C(=O)N1CCC[C@H]1c1ncc(-c2ccc(-c3ccc4c(ccc5nc([C@@H]6CCCN6C(=O)[C@@H](NC(=O)OC)C(C)C)[nH]c54)c3)cc2C2CC2)[nH]1)C(C)C | 0.1 | 0.002 | 0.2 | – | – | – | –
4 | CC(C)OC(=O)N[C@H](C(=O)N1CCC[C@H]1c1ncc(-c2ccc(-c3ccc4c(c3)c(Cl)cc3nc([C@@H]5CCCN5C(=O)[C@@H](NC(=O)OC(C)C)C(C)C)[nH]c34)cc2)[nH]1)C(C)C | > 1 | 35 | – | – | – | – | –
5 | COC(=O)N[C@H](C(=O)N1C[C@H](OC)C[C@H]1c1ncc(-c2ccc(-c3ccc4c(ccc5nc([C@@H]6[C@H]7CC[C@H](C7)N6C(=O)[C@@H](NC(=O)OC)C(C)C)[nH]c54)c3)cc2)[nH]1)C(C)C | 0.05 | 0.007 | 0.02 | 43 | – | – | –
6 | COC(=O)N[C@H](C(=O)N1CCC[C@H]1c1nc2ccc3cc(-c4ccc5c(c4)OCCCCCCOC(=O)N[C@@H](C(C)C)C(=O)N4CCC[C@H]4c4ncc-5[nH]4)ccc3c2[nH]1)C(C)C | 1 | 2 | – | 857 | – | – | –
7 | COC(=O)N[C@@H]1C[C@@H](c2ncc(-c3ccc(-c4ccc5c(ccc6nc([C@@H]7CCCN7C(=O)[C@@H](NC(=O)OC)C(C)C)[nH]c65)c4)cc3)[nH]2)N(C(=O)[C@@H](NC(=O)OC)C(C)C)C1 | 0.2 | 0.009 | 0.05 | 80 | – | – | –
8 | COCCO[C@@H]1C[C@@H](c2ncc(-c3ccc(-c4ccc5c(ccc6nc([C@@H]7[C@H]8CC[C@H](C8)N7C(=O)[C@@H](NC(=O)OC)C(C)C)[nH]c65)c4)cc3)[nH]2)N(C(=O)[C@@H](NC(=O)OC)C(C)C)C1 | > 1 | 0.01 | 0.1 | 404 | – | – | –
9 | COCCOC(=O)N[C@H](C(=O)N1CCC[C@H]1c1ncc(-c2ccc(-c3ccc4c(c3)c(Cl)cc3nc([C@@H]5CCCN5C(=O)[C@@H](NC(=O)OCCOC)C(C)C)[nH]c34)cc2)[nH]1)C(C)C | > 1 | 15 | > 1 | > 1000 | – | – | –
10 | COC(=O)N[C@H](C(=O)N1CCC[C@H]1c1nc2ccc3cc(-c4ccc(-c5c[nH]c([C@@H]6C[C@@H]7CN6C(=O)[C@H](C(C)C)NC(=O)OCCCCCCO7)n5)cc4)ccc3c2[nH]1)C(C)C | 0.006 | 0.01 | – | 188 | 0.5 | – | –
11 | COC(=O)N[C@H](C(=O)N1CCC[C@H]1c1nc2ccc3cc(-c4ccc(-c5c[nH]c([C@@H]6C[C@@H]7CN6C(=O)[C@H](C(C)C)NC(=O)OCCC/C=C/CO7)n5)cc4)ccc3c2[nH]1)C(C)C | 0.01 | 0.006 | – | 43 | 0.04 | – | –
12 | COC(=O)N[C@H](C(=O)N1CCC[C@H]1c1ncc(-c2ccc3oc(-c4ccc(-c5c[nH]c([C@@H]6C[C@@H]7CN6C(=O)[C@H](C(C)C)NC(=O)OCCCCCCO7)n5)cc4)cc3c2)[nH]1)C(C)C | – | – | – | – | – | 1.4 | 0.2
13 | COC(=O)N[C@H](C(=O)N1C[C@H](N)C[C@H]1c1ncc(-c2ccc(-c3ccc4c(ccc5nc([C@@H]6CCCN6C(=O)[C@@H](NC(=O)OC)C(C)C)[nH]c54)c3)cc2)[nH]1)C(C)C | 0.4 | 0.03 | 2 | 987 | – | – | –
14 | COC(=O)N[C@H](C(=O)N1C[C@H](NC(C)=O)C[C@H]1c1ncc(-c2ccc(-c3ccc4c(ccc5nc([C@@H]6CCCN6C(=O)[C@@H](NC(=O)OC)C(C)C)[nH]c54)c3)cc2)[nH]1)C(C)C | 0.07 | 0.01 | 0.1 | 225 | – | – | –
15 | COC(=O)N[C@H](C(=O)N1CCC[C@H]1c1ncc(-c2ccc(-c3ccc4c(ccc5nc([C@@H]6CCCN6C(=O)[C@@H](NC(=O)OC)C(C)C)[nH]c54)c3)cc2OCCN2CCOCC2)[nH]1)C(C)C | > 1 | 2 | > 10 | 1340 | – | – | –
16 | COC(=O)N[C@H](C(=O)N1CCC[C@H]1c1ncc(-c2ccc3oc(-c4ccc(-c5c[nH]c([C@@H]6C[C@@H]7CN6C(=O)[C@H](C(C)C)NC(=O)OC/C=C/CCCO7)n5)cc4)cc3c2)[nH]1)C(C)C | 0.4 | 0.04 | – | 45 | 2 | – | –
17 | COC(=O)N[C@H](C(=O)N1CCC[C@H]1c1ncc(-c2ccc(-c3ccc4c(ccc5nc([C@@H]6CCCN6C(=O)[C@@H](NC(=O)OC)C(C)C)[nH]c54)c3)cc2C)[nH]1)C(C)C | 0.02 | 0.002 | 0.09 | – | – | – | –
18 | COC(=O)N[C@H](C(=O)N1CCC[C@H]1c1ncc(-c2ccc(-c3ccc4c(ccc5nc([C@@H]6CCCN6C(=O)[C@@H](NC(=O)OC)C(C)C)[nH]c54)c3)cc2O)[nH]1)C(C)C | 0.08 | 0.004 | 0.2 | 201 | – | – | –
19 | COC(=O)N[C@H](C(=O)N1CCC[C@H]1c1nc2ccc3cc(-c4ccc(-c5cnc([C@@H]6CC[C@H]7C(=O)N[C@@H](C(C)C)C(=O)N76)[nH]5)cc4)ccc3c2[nH]1)C(C)C | 0.3 | 0.007 | – | 460 | 12 | – | –
20 | CC(C)[C@H](NC(=O)OC1(C)CC1)C(=O)N1CCC[C@H]1c1ncc(-c2ccc(-c3ccc4c(c3)c(Cl)cc3nc([C@@H]5CCCN5C(=O)[C@@H](NC(=O)OC5(C)CC5)C(C)C)[nH]c34)cc2)[nH]1 | > 1 | 4 | – | – | – | – | –
21 | COC(=O)N[C@H](C(=O)N1C[C@H](O)C[C@H]1c1ncc(-c2ccc(-c3ccc4c(ccc5nc([C@@H]6[C@H]7CC[C@H](C7)N6C(=O)[C@@H](NC(=O)OC)C(C)C)[nH]c54)c3)cc2)[nH]1)C(C)C | 0.2 | 0.007 | 0.4 | 21 | – | – | –
